# Experimental data published in paper PMC7038975 (Nucleic Acids Research, 2019).
# Target: dihydropyrimidinase (DHP) (Homo sapiens, UniProt Q14117)
# Assay: HPLC assay of […],6-dihydrouracil
# Assay type: biochemical
# dihydropyrimidinase (DHP), sequence (Q14117 whole entry): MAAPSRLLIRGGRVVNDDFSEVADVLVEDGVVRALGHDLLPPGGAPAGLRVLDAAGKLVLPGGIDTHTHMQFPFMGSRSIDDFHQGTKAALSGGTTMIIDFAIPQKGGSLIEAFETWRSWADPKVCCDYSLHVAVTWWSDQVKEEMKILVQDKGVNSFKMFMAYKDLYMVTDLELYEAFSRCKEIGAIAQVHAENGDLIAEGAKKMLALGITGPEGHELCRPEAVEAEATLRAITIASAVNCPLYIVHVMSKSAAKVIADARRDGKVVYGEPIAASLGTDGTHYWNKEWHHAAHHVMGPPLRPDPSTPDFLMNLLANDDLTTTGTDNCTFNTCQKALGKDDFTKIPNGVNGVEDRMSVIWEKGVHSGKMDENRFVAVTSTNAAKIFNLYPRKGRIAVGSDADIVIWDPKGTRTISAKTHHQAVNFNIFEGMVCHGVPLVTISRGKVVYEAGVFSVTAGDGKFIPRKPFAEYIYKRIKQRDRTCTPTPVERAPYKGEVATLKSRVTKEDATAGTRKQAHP
compound,measurement,value
O=C1c2c(O)cc(O)cc2O[C@H](c2cc(O)c(O)c(O)c2)[C@H]1O [dihydromyricetin],IC50,~6 µM
